# Data taken from US20100272696A1, “Human Bone-Forming Cells In The Treatment of Inflammatory Rheumatic Diseases” (BONE THERAPEUTICS S.A., priority 2007, published 2010).
# How the values were obtained:
# [1] = system: Carrageenan-Induced Ankle/Paw Inflammation; assay: Model of Carrageenan-Induced Ankle/Paw Inflammation (2); format: in vivo, SWISS mice; details: DEX 1 mg/kg, OB 1*10^6, FIG. 4
# Experimental: Inflammation was induced by injection of a solution containing 1% lambda carrageenan (CARRA; Sigma, Switzerland) in PBS into the hind paw of 8 weeks old SWISS mice; each animal receiving a single injection in each hind paw (Table 4). Carrageenan injected animals received immediately after injection or PBS only, or a solution of Dexamethasone (DEX; Sigma Switzerland) at a concentration of 1 mg/kg, or 1*10^6 human bone-forming cells (OB) (derived from bone marrow mesenchymal stromal cells as described in Example 1A).
# Under isoflurane sedation, the circumference of ankles and paws was measured using a digital caliper before the injection at T0 and at T1, T4, T6 and T24; respectively before CARRA administration, and 1 h, 4 h, 6 h and 24 hours after the injection.
# [2] = system: Carrageenan-Induced Ankle/Paw Inflammation; assay: Model of Carrageenan-Induced Ankle/Paw Inflammation (1); format: in vivo, SWISS mice; details: DEX 1 mg/kg, OB 1*10^6, FIG. 3
# Experimental: Sigma, Switzerland) in PBS into the hind paw of 8 weeks old SWISS mice; each animal receiving a single injection in each hind paw (Table 3). […] Sigma Switzerland) at a concentration of 1 mg/kg, or 1*10^6 human bone-forming cells (OB) (derived from bone marrow mesenchymal stromal cells as described in Example 1A) or a combination of DEX and OB. [table]
smiles,measurement,setting,value
C[C@@H]1C[C@H]2[C@@H]3CCC4=CC(=O)C=C[C@]4(C)[C@@]3(F)[C@@H](O)C[C@]2(C)[C@@]1(O)C(=O)CO [Dexamethasone],inhibition of inflammation (paw diameter),[1]; 1 h after carrageenan,100%
same,inhibition of inflammation (paw diameter),[1]; 6 h after carrageenan,70%
same,inhibition of inflammation (paw diameter),[1]; 24 h after carrageenan,38%
same,inhibition of inflammation (ankle diameter),[2]; 1 h after carrageenan,100%
same,inhibition of inflammation (ankle diameter),[2]; 4 h after carrageenan,100%
